Data published in patent US20040086504A1, “Cyr61 as a target for treatment and diagnosis of breast cancer” (priority 2003, published 2004).
Starred links: 1 amine or outer side, 2 acyl side, 3 side chain; linkers in the order of their positions; H or OH if unused. Positions of bridges follow the written chain, without caps; N, C: chain ends. Non-standard residues stand in square brackets, D forms with d. Residues, ends and D or L forms follow the SMILES beside them. Chains are numbered I, II in the order given. Actinocin(9to1) = Cc1c2oc3c(C)ccc(C(=O)[*:1])c3nc-2c(C(=O)[*:2])c(N)c1=O; NMeV = CN[C@H](C(=O)O)C(C)C; Sar = CNCC(=O)O

What was measured:
Cyr61 [1] = assay: Cyr61 mRNA/protein expression in MDA-MB-453 cells (Northern/Western blot); format: cell-based, human; settings: for effect on DHT induction of Cyr61: co-treatment with 1 nM DHT
Cyr61 [2] = assay: Cyr61 mRNA/protein expression in MCF-7 cells (Northern/Western blot); settings: for block of 17β-estradiol upregulation of Cyr61: co-treatment with 17β-estradiol
Cyr61 [3] = assay: Cyr61 mRNA expression in ZR-75-1 cells (Northern blot); format: cell-based, human
Method: (§1) Incubation and analysis were performed according to techniques described in Example 1.
(§2) Total cellular RNA was isolated from cultured adenocarcinoma cells by guanidium isothiocynate lysis followed by phenol/chloroform extraction.

Cyr61 [4] = assay: Cyr61 mRNA expression in MDA-MB-231 cells (Northern blot); format: cell-based, human; settings: AR- MDA-MB-231 cells
Method: as §1, §2

Cyr61 [5] = assay: Cyr61 mRNA/protein expression in T47D cells (Northern/Western blot)

CC(C)(O)C(=O)Nc1ccc([N+](=O)[O-])c(C(F)(F)F)c1 [2-OH flutamide]
effect on DHT induction of Cyr61 (Cyr61 [1]): completely abrogated

C[C@]12CC[C@@H]3c4ccc(O)cc4CC[C@H]3[C@@H]1CC[C@@H]2O [17β-estradiol]
upregulation of Cyr61 mRNA (Cyr61 [2]): upregulation
effects of EGF on mRNA transcription (Cyr61 [2]; with EGF): stimulates

C[C@]12CCC(=O)C[C@@H]1CC[C@@H]1[C@@H]2CC[C@]2(C)[C@@H](O)CC[C@@H]12 [DHT]
maximum expression of Cyr61 mRNA and protein (Cyr61 [1]): 8 fold
time of maximum expression of Cyr61 mRNA and protein (Cyr61 [1]): ≤ 0.5 h
concentration of maximal expression of Cyr61 mRNA and protein (Cyr61 [1]; dose-dependent): 1.0 nM
EC50 (Cyr61 [1]; read-out: EC50 for upregulation of Cyr61 mRNA and protein): ~0.3 nM
induction of Cyr61 (Cyr61 [3]): lack of induction
expression of Cyr61 (Cyr61 [4]): not enhanced

CCC(=O)[C@@]1(C)CC[C@H]2[C@@H]3CCC4=CC(=O)CCC4=C3CC[C@@]21C [R5020]
induction of Cyr61 mRNA transcription (Cyr61 [5]): dose-dependent manner
effects of EGF on mRNA transcription (Cyr61 [5]; with EGF): stimulates

Cc1c2oc3c(C)ccc(C(=O)N[C@@H]4C(=O)N[C@H](C(C)C)C(=O)N5CCC[C@H]5C(=O)N(C)CC(=O)N(C)[C@@H](C(C)C)C(=O)O[C@@H]4C)c3nc-2c(C(=O)N[C@@H]2C(=O)N[C@H](C(C)C)C(=O)N3CCC[C@H]3C(=O)N(C)CC(=O)N(C)[C@@H](C(C)C)C(=O)O[C@@H]2C)c(N)c1=O [actinomycin D] (I: T[dV]P[Sar][NMeV] / II: T[dV]P[Sar][NMeV]; ester I:1-I:C, II:1-II:C; linker I:N-II:N via Actinocin(9to1))
effect on DHT induction of Cyr61 (Cyr61 [1]): completely blocked
block of R5020 upregulation of Cyr61 (Cyr61 [5]; co-treatment with R5020): fully blocked
block of 17β-estradiol upregulation of Cyr61 (Cyr61 [2]): fully blocked

C[C@@H]1C[C@@H]([C@H](O)CC2CC(=O)NC(=O)C2)C(=O)[C@@H](C)C1 [cycloheximide]
Cyr61 mRNA on co-treatment with DHT compared to DHT treatment alone (Cyr61 [1]): significant overexpression
effect on DHT induction of Cyr61 (Cyr61 [1]): not observed
block of 17β-estradiol upregulation of Cyr61 (Cyr61 [2]): not

EGF: epidermal growth factor (NSDSECPLSHDGYCLHDGVCMYIEALDKYACNCVVGYIGERCQYRDLKWWELR; UniProt P01133 971-1023, looked up)
time to maximal levels of Cyr61 mRNA (Cyr61 [3]): ≤ 0.5 h
expression of Cyr61 (Cyr61 [4]): rapidly induced
